# Test results: US20100204138A1, “USE OF TRP6-T[…] D-LEU6-[…] […] AGENTS” (priority 2007, published 2010)
# Tests used:
# [1] = test system: Ovalbumin-restimulated spleen cells of Balb/c mice; test: Th1/Th2 cytokine profiling assay; assay type: cell-based, mouse; conditions: 10 micrograms per ml; murine spleen cells; Ovalbumin restimulation, 72 hours
# [2] = test system: hepatitis B virus (HBV) ayw strain; test: HBV experimental assay in HepG2-2.2.15 cells (TaqMan PCR of secreted HBV DNA); assay type: cell-based; conditions: 10 micrograms per ml, six days
# [3] = test system: Primary Human endothelial cells (HUVEC); test: Endothelial cell migration assay; assay type: cell-based; conditions: 10 micrograms per ml, 22 hours
# Description: Thereafter, designated concentration of testing peptides—10 micrograms per ml—was added in duplicate wells.
# Streptococcus pneumoniae = Streptococcus pneumoniae growth assay; assay type: cell-based; conditions: 10 micrograms per ml; 5×10^5 CFU/mL
# A549 cells = test: Apoptosis prevention assay (C2 ceramide, Annexin-5); assay type: cell-based, human; conditions: 10 micrograms per ml, 30 min pretreatment
# HUVEC = test: Endothelial tube formation assay; assay type: cell-based, human; conditions: 10 micrograms per ml, 20 hours
# Description: Positive control was vehicle only.
# HCMV strain AD169 = test: HCMV plaque formation assay in MRC-5 cells; assay type: cell-based; conditions: 10 micrograms per ml, 7-10 days
substance,measurement,setting,value
Pyr-His-Trp-Ser-Tyr-D-His(Bzl)-D-Leu-Arg-Pro-NHEt [Peptide 2],change of the production of IL-5,[1],did not significantly change
same,"production of IFN-γ, suppressed by",[1],30.8%
same,"production of IL-2, induced by",[1],55.8%
same,"production of IL-4, induced/increased by",[1],135.7%
same,"production of TNF-alpha, induced by",[1],did not significantly change
same,inhibition of HBV replication as compared to the virus control infection,[2],61.6%
same,inhibition of the migration of human endothelial cells,[3],8%
same,inhibition of the growth of Streptococcus pneumoniae,Streptococcus pneumoniae,100%
same,reduction of the ceramide-induced apoptosis on human lung cells,A549 cells,did not reduce
same,inhibition of the tube formation of human endothelial cells,HUVEC,4%
same,inhibition of HCMV plaque formation as compared to the virus control,HCMV strain AD169,did not inhibit
"Pyr-His-Trp-Ser-Tyr-Trp-Leu-Arg-Pro-Gly-NH2 (HWSYWLRPG; N-terminal pyroglutamate; C-terminal amide; printed: His-Trp-Ser-Tyr-Trp-Leu-Arg-Pro-Gly-) [Peptide 1, LHRH family peptide, commercially available]",change of the production of IL-5,[1],did not significantly change
same,"production of IFN-γ, induced by",[1],40.2%
same,"production of IL-2, induced by",[1],47.1%
same,"production of IL-4, induced/increased by",[1],70.6%
same,"production of TNF-alpha, induced by",[1],45.1%
same,inhibition of HBV replication as compared to the virus control infection,[2],23%
same,inhibition of the migration of human endothelial cells,[3],3%
same,inhibition of the growth of Streptococcus pneumoniae,Streptococcus pneumoniae,100%
same,reduction of the ceramide-induced apoptosis on human lung cells,A549 cells,22.65%
same,inhibition of the tube formation of human endothelial cells,HUVEC,15%
same,inhibition of HCMV plaque formation as compared to the virus control,HCMV strain AD169,did not inhibit
